Source: patent US11400059B2, “Treatment of pain and/or pain related symptoms associated with dysmenorrhea” (ALYRA BIOTECH PTY LTD, priority 2017, dated 2022)

Assays:
Type in all cases: cell-based
hTLR7 = molecular target: T1, hTLR7 (Homo sapiens, UniProt Q9NYK1); assay: Human TLR/NLR agonist screening, NF-κB SEAP reporter in HEK293 cells; details: agonist mode, Control+ = CL307 1 μg/mL
T1 construct: expressed in transfected cells; host or cells: HEK293
T1 sequence (Q9NYK1 27-1049): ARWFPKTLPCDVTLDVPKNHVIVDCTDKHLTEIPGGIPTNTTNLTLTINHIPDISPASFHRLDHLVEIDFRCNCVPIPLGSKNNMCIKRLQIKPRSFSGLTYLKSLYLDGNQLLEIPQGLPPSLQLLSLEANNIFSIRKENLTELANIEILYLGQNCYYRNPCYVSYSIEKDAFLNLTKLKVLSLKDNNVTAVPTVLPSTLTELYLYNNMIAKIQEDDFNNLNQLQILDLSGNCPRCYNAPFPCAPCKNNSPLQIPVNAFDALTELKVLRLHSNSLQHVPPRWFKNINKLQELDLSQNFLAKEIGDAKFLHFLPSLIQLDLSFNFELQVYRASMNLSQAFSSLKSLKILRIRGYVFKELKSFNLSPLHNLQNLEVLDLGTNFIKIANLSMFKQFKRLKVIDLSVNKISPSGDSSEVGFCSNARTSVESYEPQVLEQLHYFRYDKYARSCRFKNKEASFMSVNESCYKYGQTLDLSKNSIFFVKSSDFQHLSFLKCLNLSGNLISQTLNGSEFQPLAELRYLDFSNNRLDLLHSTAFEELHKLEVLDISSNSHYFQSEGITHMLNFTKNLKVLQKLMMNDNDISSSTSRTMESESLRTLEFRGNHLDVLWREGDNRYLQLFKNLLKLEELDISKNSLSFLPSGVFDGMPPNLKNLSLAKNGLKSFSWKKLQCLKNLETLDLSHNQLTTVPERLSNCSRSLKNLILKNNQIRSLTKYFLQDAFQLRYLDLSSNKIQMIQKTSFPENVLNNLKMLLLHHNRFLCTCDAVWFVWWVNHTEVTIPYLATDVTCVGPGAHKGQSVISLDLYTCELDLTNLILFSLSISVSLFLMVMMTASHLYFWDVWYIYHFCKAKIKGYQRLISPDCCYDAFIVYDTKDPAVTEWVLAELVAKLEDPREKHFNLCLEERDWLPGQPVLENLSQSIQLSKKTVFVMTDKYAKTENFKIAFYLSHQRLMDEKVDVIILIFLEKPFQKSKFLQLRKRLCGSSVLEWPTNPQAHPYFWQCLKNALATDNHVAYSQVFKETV
Method: (§1) Toll-Like Receptor (TLR), NOD-Like Receptor (NLR) and C-Type Lectin Receptor (CLR) stimulation were tested by assessing NF-κB activation in HEK293 cells expressing a given TLR, NLR or CLR. The activity of the test articles was tested at one concentration and compared to control ligands. These steps were performed in triplicate.
hTLR7: CL307 at 1 μg/mL Antagonist: 10 ng/mL.
(§2) In a 96-well plate (200 μL total volume) containing the appropriate cells (50,000-75,000 cells/well), 20 μL of the test article or the positive control ligand was added to the wells. For the antagonist assay, the test article was incubated with the cells, at 37° C. with 5% CO2, for 30 minutes prior to the addition of the positive control ligand to the wells. The media added to the wells was designed for the detection of NF-κB induced SEAP expression. After a 16-24 hr incubation the optical density (OD) was read at 650 nm on a Molecular Devices SpectraMax 340PC absorbance detector.
The fold induction (ratio of average induced value to average non-induced value) results were as follows: […]

hDectin-1b = molecular target: T2, hDectin-1b (Homo sapiens, UniProt Q9BXN2); assay: Human CLR agonist screening, NF-κB SEAP reporter in HEK293 cells; details: agonist mode, Curdlan 100 μg/mL
T2 construct: expressed in transfected cells; host or cells: HEK293
Method: as §1
(§3) hDectin-1a and hDectin-1b: WGP Soluble (0-glucan from S. cerevisiae) at 10 ng/mL Antagonist: 5 ng/mL. Curdlan at 100 μg/mL. Antagonist: 100 μg/mL. Zymosan Depleted (hot alkali treated S. cerevisiae) at 5 μg/mL Antagonist: 3 μg/mL.
as §2
(§4) Fold Induction (Ratio of Average Induced Value to Average Non-Induced Value): […]

hDectin-1a = molecular target: T3, hDectin-1a (Homo sapiens, UniProt Q9BXN2); assay: as above; details: agonist mode, Curdlan 100 μg/mL
T3 construct: expressed in transfected cells; host or cells: HEK293
Method: as §1, §3, §2, §4

T2 sequence (Q9BXN2 1-201 isoform Q9BXN2-2): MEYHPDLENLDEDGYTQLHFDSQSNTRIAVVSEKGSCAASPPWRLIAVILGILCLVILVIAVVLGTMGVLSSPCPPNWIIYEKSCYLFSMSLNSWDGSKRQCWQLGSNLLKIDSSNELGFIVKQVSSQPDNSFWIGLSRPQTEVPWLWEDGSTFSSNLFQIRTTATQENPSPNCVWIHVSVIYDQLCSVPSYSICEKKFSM
T3 sequence (Q9BXN2 whole entry): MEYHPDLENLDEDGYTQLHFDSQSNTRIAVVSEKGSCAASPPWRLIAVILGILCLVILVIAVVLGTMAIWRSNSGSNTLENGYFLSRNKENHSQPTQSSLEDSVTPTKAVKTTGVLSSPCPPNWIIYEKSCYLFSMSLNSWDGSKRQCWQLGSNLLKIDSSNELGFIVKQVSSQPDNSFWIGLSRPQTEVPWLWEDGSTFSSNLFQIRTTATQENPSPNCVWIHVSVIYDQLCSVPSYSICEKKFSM

Molecule | Fold induction (ratio of average induced value to average non-induced value) (hTLR7) | Fold induction (ratio of average induced value to average non-induced value) (hDectin-1b) | Fold induction (ratio of average induced value to average non-induced value) (hDectin-1a)
CCCCNc1nc(N)c2[nH]c(=O)n(Cc3ccc(C(=O)NCC(=O)NCCCNCCCCNCCCN)cc3)c2n1 [CL307] | 34 |  | 
Curdlan |  | 8 | 6
